Experimental data taken from a flash point compilation (Sun et al. 2020).

Key:
[1] = not given; remark: listed apart in the source
[2] = not given; remark: listed apart in the source

| Structure (SMILES) | flash point | flash point [1] | flash point [2] |
| --- | --- | --- | --- |
| ClCC(Cl)(Cl)Cl [1,1,1,2-tetrachloroethane] | 47 °C |  |  |
| C=C(Cl)Cl [1,1-dichloroethylene] | -25 °C |  |  |
| Cc1cccc(C)c1C [1,2,3-trimethylbenzene] |  | 51 °C | 44.00 °C |
| Clc1ccccc1Cl [1,2-dichlorobenzene] | 67 °C |  |  |
| CCC(Cl)CCl (stereo not given) [1,2-dichlorobutane] | 26 °C |  |  |
| CC1CCCCC1C (stereo not given) [1,2-dimethylcyclohexane] | 15 °C |  |  |
| SCCS [1,2-ethanedithiol] | 50 °C |  |  |
| CC(N)CN (stereo not given) [1,2-propanediamine] | 33 °C |  |  |
| Cc1cc(C)cc(C)c1 [1,3,5-trimethylbenzene] |  | 44 °C | 50.00 °C |
| NCCCN [1,3-propanediamine] | 48 °C |  |  |
| OCCCCO [1,4-butanediol] | 135 °C |  |  |
| N#CCCCCC#N [1,4-dicyanobutane] | 159 °C |  |  |
| CC1CCC(C)CC1 (stereo not given) [1,4-dimethylcyclohexane] | 10 °C |  |  |
| C=CCCC=C [1,5-hexadiene] | -27 °C |  |  |
| OCCCCCO [1,5-pentanediol] | 136 °C |  |  |
| SCCCCCS [1,5-pentanedithiol] | 95 °C |  |  |
| CCCCCBr [1-bromopentane] | 31 °C |  |  |
| CCc1ccc(Cl)cc1 [1-chloro-4-ethylbenzene] | 64 °C |  |  |
| CCCCCCCF [1-fluoroheptane] | 13 °C |  |  |
| CCCCCCI [1-iodohexane] | 67 °C |  |  |
| CN1CCCC1=O [1-methyl-2-pyrrolidinone] | 86 °C |  |  |
| Cc1cccc2ccccc12 [1-methylnaphthalene] | 82 °C |  |  |
| Cn1cccc1 [1-methylpyrrole] | 15 °C |  |  |
| CN1CCCC1 [1-methylpyrrolidine] | -18 °C |  |  |
| CC(C)(Cl)Cl [2,2-dichloropropane] | -5 °C |  |  |
| CC(C)(C)C#N [2,2-dimethylpropanenitrile] | 4 °C |  |  |

| Structure (SMILES) | flash point | flash point [1] | flash point [2] |
| --- | --- | --- | --- |
| Cc1cc(C)nc(C)c1 [2,4,6-trimethylpyridine] | 57 °C |  |  |
| CC(=O)CC(C)=O [2,4-pentanedione] | 34 °C |  |  |
| COC1C=CC(OC)O1 (stereo not given) [2,5-dimethoxy-2,5-dihydrofuran] | 51 °C |  |  |
| C1=CC2C=CC1C2 [2,5-norbornadiene] | -11 °C |  |  |
| CC=CC#N [2-butenenitrile] | 20 °C |  |  |
| CC(C)(C)Cl [2-chloro-2-methylpropane] | -27 °C |  |  |
| O=C1C=CCCC1 [2-cyclohexen-1-one] | 34 °C |  |  |
| CN(C)CCO [2-dimethylaminoethanol] | 40 °C |  |  |
| C=CC(=O)OCC(CC)CCCC (stereo not given) [2-ethylhexyl acrylate] | 86 °C |  |  |
| CCC1=NCCO1 [2-ethyloxazoline] | 29 °C |  |  |
| CCC(C)I (stereo not given) [2-iodobutane] | 23 °C |  |  |
| CC(C)C=O [2-methyl-1-propanal] | -25 °C |  |  |
| CCC(C)(C)O [2-methyl-2-butanol] | 21 °C |  |  |
| CC1CCCCC1O (stereo not given) [2-methylcyclohexanol] | 58 °C |  |  |
| Cc1ccc2ccccc2c1 [2-methylnaphthalene] | 97 °C |  |  |
| CC1CCCO1 (stereo not given) [2-methyltetrahydrofuran] | -11 °C |  |  |
| Cc1cccs1 [2-methylthiophene] | 7 °C |  |  |
| CCCC(C)O (stereo not given) [2-pentanol] | 40 °C |  |  |
| CC(C)(C)c1ccco1 [2-t-butylfuran] | 7 °C |  |  |
| C=CCC#N [3-butenenitrile] | 21 °C |  |  |
| CCCCOCCCN [3-butoxypropylamine] | 63 °C |  |  |
| C=CCI [3-iodo-1-propene] | 18 °C |  |  |
| C=CC(C)C [3-methyl-1-butene] | -57 °C |  |  |
| CC(C)C(C)S (stereo not given) [3-methyl-2-butanethiol] | 19 °C |  |  |
| CC1CCCC(O)C1 (stereo not given) [3-methylcyclohexanol] | 62 °C |  |  |
| Cc1cccnc1 [3-methylpyridine] | 38 °C |  |  |

| Structure (SMILES) | flash point | flash point [1] | flash point [2] |
| --- | --- | --- | --- |
| Cc1ccsc1 [3-methylthiophene] | 11 °C |  |  |
| Cc1cccnc1 [3-picoline] | 40 °C |  |  |
| Oc1ccc(Cl)cc1 [4-chlorophenol] | 115 °C |  |  |
| Cc1ccc(Cl)cc1 [4-chlorotoluene] | 49 °C |  |  |
| C=CCC(C)C [4-methyl-1-pentene] | -31 °C |  |  |
| C=CC1CC=CCC1 (stereo not given) [4-vinyl-1-cyclohexene] | 16 °C |  |  |
| C#CCCCCl [5-chloro-1-pentyne] | 15 °C |  |  |
| CC=C1CC2C=CC1C2 (stereo not given) [5-ethylidene-2-norbornene] | 38 °C |  |  |
| C=CCCCCCCCCO [9-decen-1-ol] | 119 °C |  |  |
| CC=NO [acetaldoxime] | 36 °C |  |  |
| CC(=O)OC(C)=O [acetic anhydride] | 49 °C |  |  |
| CC(=O)c1ccccc1 [acetophenone] | 82 °C |  |  |
| C=CC#N [acrylonitrile] | -1 °C |  |  |
| C1CCCCC1 [cyclohexane] |  | -18 °C | -20.00 °C |
| CCCCCC [hexane] |  | -26 °C | -23.00 °C |
| c1ccncc1 [pyridine] |  | 17 °C |  |
| CC(C)(C)O [tert-butylalcohol] |  | 11 °C |  |
| CC(C)(C)N [tert-butylamine] |  | -38 °C |  |
| CC(C)(C)c1ccccc1 [tert-butylbenzene] |  | 44 °C |  |
| CSC(C)(C)C [tert-butylmethylsulfide] |  | -3 °C |  |
| C1CCOC1 [tetrahydrofuran] |  | -21 °C |  |
| Cc1ccccc1 [toluene] |  | 7 °C | 4.00 °C |
| C[C@H]1CC[C@H](C)CC1 [trans-1,4-dimethylcyclohexane] |  | 6 °C |  |
| C[C@H]1CC[C@H](O)CC1 [trans-4-methylcyclohexanol] |  | 70 °C |  |
| C1CC[C@H]2CCCC[C@@H]2C1 [trans-decalin] |  | 53 °C |  |
| C=CC1CCCCC1 [vinylcyclohexane] |  | 21 °C |  |

Continued, values first:

| flash point | flash point [1] | flash point [2] | Structure (SMILES) |
| --- | --- | --- | --- |
| 93 °C |  |  | CCC(O)CO (stereo not given) [1,2-butanediol] |
| 131 °C |  |  | OCCCO [1,3-propanediol] |
| 41 °C |  |  | CCCCCCCCl [1-chloroheptane] |
| 13 °C |  |  | CC(=O)C1CC1 [1-cyclopropylethanone] |
| -10 °C |  |  | CCCCOC [1-methoxybutane] |
| 69 °C |  |  | CCCCCCCCS [1-octanethiol] |
| 21 °C |  |  | C=CCCCCCC [1-octene] |
| 101 °C |  |  | CC(O)CCC(C)O (stereo not given) [2,5-hexanediol] |
|  | 72 °C | 74.00 °C | CNCCO [2-(methylamino)ethanol] |
| 67 °C |  |  | CC(C)(N)CO [2-amino-2-methyl-1-propanol] |
| 53 °C |  |  | COC(CBr)OC [2-bromo-1,1-dimethoxyethane] |
| 46 °C |  |  | CCCCC(C=O)CC (stereo not given) [2-ethylhexanal] |
| 43 °C |  |  | CC(C)OCCO [2-isopropoxyethanol] |
| 71 °C |  |  | CNCCO [2-methylaminoethanol] |
| 69 °C |  |  | CCCCCCCC(C)=O [2-nonanone] |
| 62 °C |  |  | CCCCCCC(C)=O [2-octanone] |
| 107 °C |  |  | CCCCCCCCCC(C)O (stereo not given) [2-undecanol] |
| 89 °C |  |  | CCCCCCCCCC(C)=O [2-undecanone] |
| 88 °C |  |  | CC(C)(C)CC(=O)O [3,3-dimethylbutanoic acid] |
| 6 °C |  |  | CC(=O)C(C)C [3-methyl-2-butanone] |
| -6 °C |  |  | CC=C(C)CC [3-methyl-2-pentene] |
| 24 °C |  |  | CCC(C)C(CC)CC (stereo not given) [3-methyl-4-ethylhexane] |
| 7 °C |  |  | CCCCC(C)CC (stereo not given) [3-methylheptane] |
| -3 °C |  |  | CCCC(C)CC (stereo not given) [3-methylhexane] |
| 51 °C |  |  | CC(C)CCCO [4-methyl-1-pentanol] |

| flash point | flash point [1] | flash point [2] | Structure (SMILES) |
| --- | --- | --- | --- |
| 58 °C |  |  | CSCCC=O [4-thiapentanal] |
| 47 °C |  |  | C=CCCCCO [5-hexen-1-ol] |
| 36 °C |  |  | CC(=O)CCC(C)C [5-methyl-2-hexanone] |
| 43 °C |  |  | CCC(=O)CC(C)CC (stereo not given) [5-methyl-3-heptanone] |
| -23 °C |  |  | CCN(C)CC [N,N-diethylmethylamine] |
| 16 °C |  |  | CCNC(C)C [N-ethylisopropylamine] |
|  | 71 °C | 74.00 °C | CCCCCCCCCCCC [dodecane] |
|  | 30 °C |  | CCCOC(=O)C(C)C [propyl2-methylpropanoate] |
|  | 35 °C |  | CCCOC(=O)CCC [propylbutanoate] |
|  | 35 °C |  | C=C(C)C(=O)OCCC [propylmethacrylate] |
|  | 22 °C |  | CCCOC(=O)CC [propylpropanoate] |
|  | -22 °C |  | C=COCCC [propylvinylether] |
|  | -19 °C |  | CCC(C)N (stereo not given) [sec-butylamine] |
|  | 4 °C |  | CC(=O)OC(C)(C)C [tert-butylacetate] |
|  | -9 °C |  | CC(C)(C)OC=O [tert-butylformate] |
|  | -17 °C |  | C=COC(C)(C)C [tert-butylvinylether] |
|  | 14 °C |  | C/C=C/CCCCC [trans-2-octene] |
|  | -45 °C |  | C/C=C/CC [trans-2-pentene] |
|  | -7 °C |  | CC/C=C/CCC [trans-3-heptene] |
|  | 8 °C |  | CCC/C=C/CCC [trans-4-octene] |
|  | 35 °C |  | CCOC(OCC)OCC [triethoxymethane] |
|  | 35 °C |  | CCCN(CCC)CCC [tripropylamine] |
|  | 95 °C |  | CCCCCCCCCCC=O [undecanal] |
|  | 20 °C |  | C=COC(=O)CCC [vinylbutanoate] |
|  | 6 °C |  | C=COC(=O)CC [vinylpropanoate] |
